Article PMC5266331, “Novel PARP-1 Inhibitor Scaffolds Disclosed by a Dynamic Structure-Based Pharmacophore Approach” (PLoS ONE, 2017)
pIC50: −log10 of the molar value.

Target: T1, PARP-1 (Homo sapiens, UniProt P09874)
T1 construct: gene PARP1
Experiment: HT Universal Colorimetric PARP Assay kit (histone-coated wells, biotinylated poly(ADP-ribose))
Assay type: biochemical

T1 sequence (P09874 2-1014): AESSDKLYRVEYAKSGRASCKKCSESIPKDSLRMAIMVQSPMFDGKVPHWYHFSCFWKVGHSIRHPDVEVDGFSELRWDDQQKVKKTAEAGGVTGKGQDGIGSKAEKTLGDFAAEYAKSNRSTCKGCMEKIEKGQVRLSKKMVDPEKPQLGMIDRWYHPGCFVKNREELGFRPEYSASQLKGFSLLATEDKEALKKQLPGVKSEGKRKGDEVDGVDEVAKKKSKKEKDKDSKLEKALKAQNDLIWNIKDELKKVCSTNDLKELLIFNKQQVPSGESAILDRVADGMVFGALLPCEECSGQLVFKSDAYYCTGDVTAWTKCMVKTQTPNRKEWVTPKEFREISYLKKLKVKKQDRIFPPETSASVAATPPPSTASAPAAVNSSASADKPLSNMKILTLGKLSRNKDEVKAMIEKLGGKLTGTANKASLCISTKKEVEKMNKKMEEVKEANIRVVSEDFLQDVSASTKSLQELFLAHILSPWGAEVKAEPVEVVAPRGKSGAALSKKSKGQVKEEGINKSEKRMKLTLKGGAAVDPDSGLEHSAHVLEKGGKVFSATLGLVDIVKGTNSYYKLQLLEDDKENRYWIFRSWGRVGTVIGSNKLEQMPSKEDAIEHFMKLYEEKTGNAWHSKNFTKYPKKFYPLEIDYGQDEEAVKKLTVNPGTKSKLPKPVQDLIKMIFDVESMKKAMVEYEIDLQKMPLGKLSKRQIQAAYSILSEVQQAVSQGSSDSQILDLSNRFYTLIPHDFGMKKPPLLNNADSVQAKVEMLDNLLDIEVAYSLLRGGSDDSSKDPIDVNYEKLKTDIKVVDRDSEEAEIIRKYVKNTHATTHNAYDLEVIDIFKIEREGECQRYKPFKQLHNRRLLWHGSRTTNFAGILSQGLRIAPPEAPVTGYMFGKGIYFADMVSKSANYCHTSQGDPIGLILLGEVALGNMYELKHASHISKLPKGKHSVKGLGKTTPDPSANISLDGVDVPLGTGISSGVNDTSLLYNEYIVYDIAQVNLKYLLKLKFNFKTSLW

## COc1ccc2c(c1O)CNCC2c1ccc(O)c(O)c1 (stereo not shown) [NSC131753]
  pIC50: 6.62
